The source made the active and inactive calls.
How the values were obtained:
[1] = biological target: T1, Apoptotic protease-activating factor 1 (Homo sapiens, UniProt O14727); assay type: functional
T1 sequence (O14727 whole entry): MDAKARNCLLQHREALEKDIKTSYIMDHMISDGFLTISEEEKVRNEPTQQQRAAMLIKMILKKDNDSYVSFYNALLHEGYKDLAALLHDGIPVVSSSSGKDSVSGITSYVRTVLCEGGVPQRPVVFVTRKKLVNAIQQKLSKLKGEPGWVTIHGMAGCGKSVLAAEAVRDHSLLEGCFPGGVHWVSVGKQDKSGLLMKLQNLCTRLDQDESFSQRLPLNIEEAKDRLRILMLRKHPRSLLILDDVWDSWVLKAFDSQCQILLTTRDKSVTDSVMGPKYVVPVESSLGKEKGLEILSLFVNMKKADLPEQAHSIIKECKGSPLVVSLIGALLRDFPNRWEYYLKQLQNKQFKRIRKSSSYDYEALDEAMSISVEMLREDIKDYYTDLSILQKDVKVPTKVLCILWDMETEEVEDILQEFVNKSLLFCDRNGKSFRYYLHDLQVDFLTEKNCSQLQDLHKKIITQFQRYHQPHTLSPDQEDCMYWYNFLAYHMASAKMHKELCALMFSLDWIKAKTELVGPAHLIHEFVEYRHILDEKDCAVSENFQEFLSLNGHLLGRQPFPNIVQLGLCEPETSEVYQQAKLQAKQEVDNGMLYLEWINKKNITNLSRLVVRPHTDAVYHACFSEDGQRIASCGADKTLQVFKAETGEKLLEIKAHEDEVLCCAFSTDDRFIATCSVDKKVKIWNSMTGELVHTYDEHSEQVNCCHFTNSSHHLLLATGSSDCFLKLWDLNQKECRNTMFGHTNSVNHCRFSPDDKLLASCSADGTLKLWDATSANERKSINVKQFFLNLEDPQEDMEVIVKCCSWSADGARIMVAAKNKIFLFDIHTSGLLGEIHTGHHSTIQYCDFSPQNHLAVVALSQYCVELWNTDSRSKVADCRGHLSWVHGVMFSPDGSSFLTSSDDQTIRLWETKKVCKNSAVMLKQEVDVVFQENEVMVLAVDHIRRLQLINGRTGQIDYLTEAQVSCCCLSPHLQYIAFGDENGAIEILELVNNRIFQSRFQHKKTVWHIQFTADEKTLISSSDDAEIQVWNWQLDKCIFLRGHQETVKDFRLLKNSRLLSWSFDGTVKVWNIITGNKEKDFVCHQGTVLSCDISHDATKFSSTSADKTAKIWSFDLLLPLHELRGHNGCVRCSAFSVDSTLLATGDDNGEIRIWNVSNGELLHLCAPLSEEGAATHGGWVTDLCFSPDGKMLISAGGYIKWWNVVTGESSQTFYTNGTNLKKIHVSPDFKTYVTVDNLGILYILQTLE

Protein RecA = biological target: T2, Protein RecA (Mycobacterium tuberculosis, UniProt P9WHJ3); experiment: Fluorescence Cell-Free Homogeneous Dose Retest to Identify Inhibitors of RecA-Intein Splicing Activity. [Related pubchem assays (depositor defined):AID2097, AID2223, AID489010, AID492950]; assay type: functional
T2 sequence (P9WHJ3 whole entry): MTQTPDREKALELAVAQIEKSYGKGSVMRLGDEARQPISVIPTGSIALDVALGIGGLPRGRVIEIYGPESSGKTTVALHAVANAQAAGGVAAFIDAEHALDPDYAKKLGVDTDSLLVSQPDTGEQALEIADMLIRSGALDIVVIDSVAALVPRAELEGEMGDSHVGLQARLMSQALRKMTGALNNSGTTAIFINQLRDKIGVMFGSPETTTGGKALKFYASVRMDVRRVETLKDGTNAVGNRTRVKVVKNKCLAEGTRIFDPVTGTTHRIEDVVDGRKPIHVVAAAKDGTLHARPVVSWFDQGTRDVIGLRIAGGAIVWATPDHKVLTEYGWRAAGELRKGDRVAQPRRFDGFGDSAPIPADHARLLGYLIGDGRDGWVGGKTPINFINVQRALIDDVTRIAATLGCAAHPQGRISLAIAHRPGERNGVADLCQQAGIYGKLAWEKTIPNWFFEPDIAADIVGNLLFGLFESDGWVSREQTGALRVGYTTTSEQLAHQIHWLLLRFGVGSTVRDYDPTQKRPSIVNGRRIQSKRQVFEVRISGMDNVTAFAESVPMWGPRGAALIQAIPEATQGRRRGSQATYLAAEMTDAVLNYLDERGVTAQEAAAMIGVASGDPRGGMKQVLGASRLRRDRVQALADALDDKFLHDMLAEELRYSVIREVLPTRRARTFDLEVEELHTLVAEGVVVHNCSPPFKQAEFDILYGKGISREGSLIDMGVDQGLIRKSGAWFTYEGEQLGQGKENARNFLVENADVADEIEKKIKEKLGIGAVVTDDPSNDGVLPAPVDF

[2] = biological target: T3, Tyrosyl-DNA phosphodiesterase 2 (Homo sapiens, UniProt O95551); experiment: human TDP2 enzyme inhibitors, dose response, biochemical, epi absorbance, IC50 (AID 743297)
T3 sequence (O95551 whole entry): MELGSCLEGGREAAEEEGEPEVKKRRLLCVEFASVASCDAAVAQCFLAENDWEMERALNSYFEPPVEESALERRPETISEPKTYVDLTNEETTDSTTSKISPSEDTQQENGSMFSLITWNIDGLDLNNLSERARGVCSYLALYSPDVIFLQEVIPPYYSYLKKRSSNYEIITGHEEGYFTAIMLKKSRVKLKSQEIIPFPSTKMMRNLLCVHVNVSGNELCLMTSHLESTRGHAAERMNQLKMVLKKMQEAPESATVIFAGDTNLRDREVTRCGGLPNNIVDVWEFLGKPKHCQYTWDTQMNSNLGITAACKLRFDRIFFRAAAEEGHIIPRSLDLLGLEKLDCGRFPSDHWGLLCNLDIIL

| Compound | IC50 [1] | EC50 (Protein RecA) | IC50 [2] |
| --- | --- | --- | --- |
| COC(CNC(=O)c1ccc2c3c(onc13)-c1ccccc1C2=O)OC | 25.2 µM (active) | 5.99 µM (active) | – |
| COc1cc(-c2ccc(Nc3ccccc3C(=O)O)c(OC)c2)ccc1Nc1ccccc1C(=O)O | 26.7 µM (active) | – | – |
| Cc1ccc2nc(/C(C#N)=C\c3ccc([N+](=O)[O-])o3)[nH]c2c1 | – | 0.454 µM (active) | – |
| Nc1ccc2c(c1)C(=O)C(=O)c1ccccc1-2 | 0.768 µM (active) | 6.36 µM (active) | 1.34 µM (active) |
| O=C(O)c1ccc(NC2=C/C(=N/S(=O)(=O)c3ccccc3)c3ccccc3C2=O)cc1 | 3.15 µM (active) | – | 1.88 µM (active) |
| COC(=O)[C@@H]1[C@@H](C(=O)OC)C2(c3ccccc3-c3ccccc32)N(c2ccc(Cl)cc2)N1C#N | – | 5.38 µM (active) | – |
| COc1ccc(OC)c(Nc2cc3ccccc3c(O)n2)c1 | 2.5 µM (active) | 1.34 µM (active) | 24.9 µM (inactive) |
